“And” between values parts separate entries of the source, which are not always exact repeats. Equal entries are not always repeated. Inconclusive results and toxic doses are left out.
Tested on: BDF1 mice, B16 melanoma ip, median survival T/C
Test: NCI In Vivo Anticancer Drug Screen. Data for tumor model B16 Melanoma (intraperitoneal) in B6D2F1 (BDF1) mice
Conditions: endpoint: median survival time, higher = longer survival
In short: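 Each result divides a survival or tumor-size measurement in the compound-treated group by the same measurement in the vehicle group.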

[1] = dose: 400.0 mg/kg/injection, schedule: Q01DX009 (ip), vehicle: saline
[2] = dose: 25.0 mg/kg/injection, schedule: Q01DX009 (ip), vehicle: saline
[3] = dose: 50.0 mg/kg/injection, schedule: Q01DX009 (ip), vehicle: saline
[4] = dose: 50.0 mg/kg/injection, schedule: Q04DX003 (ip), vehicle: saline
[5] = dose: 100.0 mg/kg/injection, schedule: Q04DX003 (ip), vehicle: saline
[6] = dose: 100.0 mg/kg/injection, schedule: Q01DX009 (ip), vehicle: Klucel (hydroxypropylcellulose) (HPC)
[7] = dose: 200.0 mg/kg/injection, schedule: Q01DX009 (ip), vehicle: Klucel (hydroxypropylcellulose) (HPC)
[8] = dose: 400.0 mg/kg/injection, schedule: Q01DX009 (ip), vehicle: Klucel (hydroxypropylcellulose) (HPC)
[9] = dose: 100.0 mg/kg/injection, schedule: Q04DX003 (ip), vehicle: Klucel (hydroxypropylcellulose) (HPC)
[10] = dose: 100.0 mg/kg/injection, schedule: Q01DX009 (ip), vehicle: saline
[11] = dose: 200.0 mg/kg/injection, schedule: Q01DX009 (ip), vehicle: saline
[12] = dose: 6.25 mg/kg/injection, schedule: Q01DX009 (ip), vehicle: Klucel (hydroxypropylcellulose) (HPC)
[13] = dose: 12.5 mg/kg/injection, schedule: Q01DX009 (ip), vehicle: Klucel (hydroxypropylcellulose) (HPC)
[14] = dose: 12.5 mg/kg/injection, schedule: Q01DX009 (ip), vehicle: saline with Tween-80
[15] = dose: 12.5 mg/kg/injection, schedule: Q04DX003 (ip), vehicle: Klucel (hydroxypropylcellulose) (HPC)
[16] = dose: 25.0 mg/kg/injection, schedule: Q04DX003 (ip), vehicle: Klucel (hydroxypropylcellulose) (HPC)
[17] = dose: 50.0 mg/kg/injection, schedule: Q01DX009 (ip), vehicle: Klucel (hydroxypropylcellulose) (HPC)
[18] = dose: 50.0 mg/kg/injection, schedule: Q04DX003 (ip), vehicle: Klucel (hydroxypropylcellulose) (HPC)
[19] = dose: 25.0 mg/kg/injection, schedule: Q01DX009 (ip), vehicle: saline with Tween-80
[20] = dose: 50.0 mg/kg/injection, schedule: Q01DX009 (ip), vehicle: saline with Tween-80
[21] = dose: 100.0 mg/kg/injection, schedule: Q01DX009 (ip), vehicle: saline with Tween-80
[22] = dose: 200.0 mg/kg/injection, schedule: Q01DX009 (ip), vehicle: saline with Tween-80
[23] = dose: 400.0 mg/kg/injection, schedule: Q01DX009 (ip), vehicle: saline with Tween-80

## CCC[CH2][Sn]1([CH2]CCC)[N](S(=O)(=O)c2ccc(C)cc2)c2ccccc2[N]1S(=O)(=O)c1ccc(C)cc1
dose: 1.5 mg/kg/injection, schedule: Q01DX009 (ip), vehicle: Klucel (hydroxypropylcellulose) (HPC)
  T/C: 87 % of control
dose: 3.0 mg/kg/injection, schedule: Q01DX009 (ip), vehicle: Klucel (hydroxypropylcellulose) (HPC)
  T/C: 102 % of control

## O=C(O)CCNCCO
[1]
  T/C: 97 % of control

## C=CCOP(=O)(N1CC1C)N1CC1C (stereo not given)
[2]
  T/C: 95 % of control
[3]
  T/C: 96 % of control
[4]
  T/C: 97 % of control
[5]
  T/C: 105 % of control

## CCCCCCCCCCCCCCNC(=O)CCl
[6]
  T/C: 113 % of control
[7]
  T/C: 106 % of control

## COc1ccc(CC(CO)C(CO)Cc2ccc(OC)c(OC)c2)cc1OC (stereo not given)
[6]
  T/C: 93 % of control
[7]
  T/C: 100 % of control
[8]
  T/C: 103 % of control

## S=C1SCN(C2CCCCC2)CN1C1CCCCC1
[9]
  T/C: 93 % of control
dose: 200.0 mg/kg/injection, schedule: Q04DX003 (ip), vehicle: Klucel (hydroxypropylcellulose) (HPC)
  T/C: 90 % of control
dose: 400.0 mg/kg/injection, schedule: Q04DX003 (ip), vehicle: Klucel (hydroxypropylcellulose) (HPC)
  T/C: 86 % of control

## CCCCCCC(=O)CC(C)C
[6]
  T/C: 93 % of control
[7]
  T/C: 90 % of control
[8]
  T/C: 86 % of control

## CC(=O)[C@]1(O)Cc2c(O)c3c(c(O)c2[C@@H](OC2CC(N)C(O)C(C)O2)C1)C(=O)c1c(O)cccc1C3=O (stereo not given in full)
dose: 0.04 mg/kg/injection, schedule: Q01DX001 (ip), vehicle: water
  T/C: 105 % of control
dose: 0.08 mg/kg/injection, schedule: Q01DX001 (ip), vehicle: water
  T/C: 113 % of control and 124 % of control
dose: 0.16 mg/kg/injection, schedule: Q01DX001 (ip), vehicle: water
  T/C: 124 % of control
dose: 0.38 mg/kg/injection, schedule: Q01DX001 (ip), vehicle: water
  T/C: 124 % of control

## CCCCCCCCCC(=O)OCCN1CCN(CCCN2c3ccccc3Sc3ccc(C(F)(F)F)cc32)CC1
dose: 0.09 mg/kg/injection, schedule: Q01DX009 (ip), vehicle: alcohol
  T/C: 97 % of control
dose: 0.19 mg/kg/injection, schedule: Q01DX009 (ip), vehicle: alcohol
  T/C: 123 % of control
dose: 0.39 mg/kg/injection, schedule: Q01DX009 (ip), vehicle: alcohol
  T/C: 111 % of control

## NC(=S)c1ncn(C2OC(CO)C(O)C2O)c1N (stereo not given)
dose: 12.5 mg/kg/injection, schedule: Q01DX009 (ip), vehicle: saline
  T/C: 107 % of control
[2]
  T/C: 105 % of control
[3]
  T/C: 105 % of control
[10]
  T/C: 102 % of control
[11]
  T/C: 103 % of control
[1]
  T/C: 95 % of control

## O=C(CBr)c1ccc(F)cc1
dose: 3.12 mg/kg/injection, schedule: Q01DX009 (ip), vehicle: Klucel (hydroxypropylcellulose) (HPC)
  T/C: 106 % of control
[12]
  T/C: 91 % of control
[13]
  T/C: 99 % of control

## O=C1C(=O)c2ccccc2-c2ccccc21
dose: 1.56 mg/kg/injection, schedule: Q01DX009 (ip), vehicle: saline with Tween-80
  T/C: 100 % of control
dose: 3.13 mg/kg/injection, schedule: Q01DX009 (ip), vehicle: saline with Tween-80
  T/C: 89 % of control
[12]
  T/C: 102 % of control
dose: 6.25 mg/kg/injection, schedule: Q01DX009 (ip), vehicle: saline with Tween-80
  T/C: 97 % of control
[13]
  T/C: 101 % of control
[14]
  T/C: 100 % of control
[15]
  T/C: 98 % of control
dose: 25.0 mg/kg/injection, schedule: Q01DX009 (ip), vehicle: Klucel (hydroxypropylcellulose) (HPC)
  T/C: 104 % of control
[16]
  T/C: 89 % of control
[17]
  T/C: 109 % of control
[18]
  T/C: 98 % of control
dose: 50.0 mg/kg/injection, schedule: Q04DX003 (ip), vehicle: saline with Tween-80
  T/C: 166 % of control
[9]
  T/C: 89 % of control

## Nc1ccc(S(=O)(=O)c2ccc(N)cc2)cc1
[14]
  T/C: 107 % of control
[19]
  T/C: 97 % of control and 102 % of control
[20]
  T/C: 90 % of control and 94 % of control
[21]
  T/C: 93 % of control and 95 % of control
[22]
  T/C: 94 % of control

## CCCCC(C(=O)OCC)C(CCC1CCCCC1)(C(=O)OCC)C(=O)OCC (stereo not given)
[15]
  T/C: 90 % of control
[16]
  T/C: 99 % of control
[18]
  T/C: 87 % of control and 89 % of control

## CN(N=O)C(=O)N[C@@H](C=O)[C@@H](O)[C@H](O)[C@H](O)CO
dose: 12.5 mg/kg/injection, schedule: Q01DX009 (ip), vehicle: citric acid
  T/C: 105 % of control
dose: 12.5 mg/kg/injection, schedule: Q01DX009 (ip), vehicle: other
  T/C: 109 % of control and 117 % of control (2×)
dose: 25.0 mg/kg/injection, schedule: Q01DX009 (ip), vehicle: citric acid
  T/C: 106 % of control
dose: 25.0 mg/kg/injection, schedule: Q01DX009 (ip), vehicle: other
  T/C: 105 % of control and 118 % of control and 124 % of control
dose: 37.5 mg/kg/injection, schedule: Q04DX003 (ip), vehicle: saline
  T/C: 90 % of control and 115 % of control
dose: 50.0 mg/kg/injection, schedule: Q01DX009 (ip), vehicle: citric acid
  T/C: 117 % of control
dose: 75.0 mg/kg/injection, schedule: Q04DX003 (ip), vehicle: saline
  T/C: 118 % of control
dose: 150.0 mg/kg/injection, schedule: Q04DX003 (ip), vehicle: saline
  T/C: 116 % of control
dose: 300.0 mg/kg/injection, schedule: Q04DX003 (ip), vehicle: saline
  T/C: 45 % of control and 118 % of control

## CC(=O)Nc1ccc(S(=O)(=O)CO)cc1
[14]
  T/C: 97 % of control and 110 % of control
[19]
  T/C: 100 % of control and 114 % of control
[20]
  T/C: 95 % of control and 96 % of control
[21]
  T/C: 92 % of control and 115 % of control
[22]
  T/C: 90 % of control and 110 % of control
[23]
  T/C: 89 % of control and 99 % of control

## OCCOc1c(Cl)c(Cl)c(Cl)c(Cl)c1Cl
[19]
  T/C: 100 % of control
[20]
  T/C: 92 % of control
[21]
  T/C: 97 % of control

## O=C(O)CNc1ccccc1C(=O)O
[17]
  T/C: 108 % of control
[6]
  T/C: 94 % of control
[7]
  T/C: 91 % of control

## C=C(CCCCC)C(=O)/C=C/c1ccc(Cl)cc1
dose: 75.0 mg/kg/injection, schedule: Q04DX003 (ip), vehicle: Klucel (hydroxypropylcellulose) (HPC)
  T/C: 94 % of control
dose: 150.0 mg/kg/injection, schedule: Q04DX003 (ip), vehicle: Klucel (hydroxypropylcellulose) (HPC)
  T/C: 94 % of control

## c1ccc(-c2nn3c(-c4ccccc4)nnc3o2)cc1
[21]
  T/C: 93 % of control
[22]
  T/C: 92 % of control
[23]
  T/C: 92 % of control

## CCNc1nc(NCC)nc(SC)n1
[19]
  T/C: 97 % of control
[20]
  T/C: 87 % of control
[21]
  T/C: 105 % of control

## c1ccc(OP2OCCO2)cc1
[2]
  T/C: 88 % of control
[3]
  T/C: 100 % of control
[10]
  T/C: 105 % of control
[11]
  T/C: 91 % of control

## Cc1ccc(NC(=O)Nc2cccc(C(F)(F)F)c2)cc1NC(=O)Nc1cccc(C(F)(F)F)c1
[19]
  T/C: 103 % of control
[20]
  T/C: 91 % of control
[21]
  T/C: 96 % of control

## COc1cc2ccc(CCNCc3ccccc3)cc2cc1OC
[4]
  T/C: 92 % of control
[5]
  T/C: 94 % of control

## CC(=N/NC(N)=S)/C(C)=N/NC(N)=S
[10]
  T/C: 118 % of control
[11]
  T/C: 97 % of control

## [O-]c1cc2c3c(c1)c1cc4c(cc1c[n+]3C=C2)OCO4
dose: 3.13 mg/kg/injection, schedule: Q01DX009 (ip), vehicle: water
  T/C: 96 % of control
dose: 6.25 mg/kg/injection, schedule: Q01DX009 (ip), vehicle: water
  T/C: 121 % of control
dose: 12.5 mg/kg/injection, schedule: Q01DX009 (ip), vehicle: water
  T/C: 122 % of control
dose: 25.0 mg/kg/injection, schedule: Q01DX009 (ip), vehicle: water
  T/C: 124 % of control
dose: 50.0 mg/kg/injection, schedule: Q01DX009 (ip), vehicle: water
  T/C: 114 % of control

From PubChem BioAssay AID192 (DTP/NCI, 2004)
